Legend:
[1] = system: HCT-116 cell line; test: Inhibition of cell growth, MTT tetrazolium salt assay; type: cell-based; details: for HCT-116 % Inhibition at 0.1 μM: HCT-116, at 0.1 μM; for HCT-116 % Inhibition at 0.25 μM: HCT-116, at 0.25 μM
Procedure, shortened: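 Growth inhibition was read as MTT-formazan absorbance at 540 nm, after 4 h with 0.2 mg/mL MTT. Before that, HCT-116 cells had been exposed 3–5 days at 37 °C to compounds in 0.5% (v/v) DMSO, added 4 h after plating. 50% and 90% inhibitory concentrations were taken from semi-log concentration–inhibition plots versus vehicle controls.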

[2] = target: T1, human CDK4/cyclin D3 (Homo sapiens, UniProt P11802); test: Inhibition of CDK4/cyclin D retinoblastoma kinase activity (Ki; % inhibition); type: biochemical; details: at 0.03 μM
T1 construct: made in house; host or cells: insect cells co-infected with baculovirus vectors
Procedure, shortened: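 Insect-cell-expressed CDK4 with truncated cyclin D3 (1-264), 5 nM, phosphorylating His-tagged Rb fragment (386-928) with 25 μM [32/33P]ATP at pH 7.4, 30 °C, 20 min (60 min for tight binders). Filter capture, phosphorimager read; % inhibition at 30 nM compound, Ki from competitive or tight-binding fits.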

[3] = target: T2, CDK2/cyclin A (Homo sapiens, UniProt P24941); test: Inhibition of CDK2/cyclin A retinoblastoma kinase activity (Ki; % inhibition); type: biochemical; details: at 0.03 μM
T2 construct: made in house; host or cells: CDK2: insect cells (baculovirus); cyclin A: E. coli
Procedure, shortened: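 Radiometric filter assay of CDK2/proteolyzed cyclin A (baculovirus-expressed human CDK2, 10 or 19 nM) phosphorylating an Rb fragment with 25 μM [³²P/³³P]ATP in pH 7.4 HEPES, 2% DMSO, at 30 °C for 60 or 75 min under initial-rate conditions. Library compounds screened at 30 nM for % inhibition; apparent Ki from concentration series fit to competitive or tight-binding inhibition equations.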

T1 sequence (P11802 whole entry): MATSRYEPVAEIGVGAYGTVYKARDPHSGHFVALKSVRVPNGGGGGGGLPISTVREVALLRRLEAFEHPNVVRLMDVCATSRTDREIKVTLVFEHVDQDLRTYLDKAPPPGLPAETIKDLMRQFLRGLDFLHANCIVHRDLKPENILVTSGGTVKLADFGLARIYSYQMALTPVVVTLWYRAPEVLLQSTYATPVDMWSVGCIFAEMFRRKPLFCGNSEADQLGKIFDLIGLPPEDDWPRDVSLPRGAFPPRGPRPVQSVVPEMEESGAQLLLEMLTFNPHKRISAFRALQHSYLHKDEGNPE
T1 sequence (P30281 1-264 partner limits assumed): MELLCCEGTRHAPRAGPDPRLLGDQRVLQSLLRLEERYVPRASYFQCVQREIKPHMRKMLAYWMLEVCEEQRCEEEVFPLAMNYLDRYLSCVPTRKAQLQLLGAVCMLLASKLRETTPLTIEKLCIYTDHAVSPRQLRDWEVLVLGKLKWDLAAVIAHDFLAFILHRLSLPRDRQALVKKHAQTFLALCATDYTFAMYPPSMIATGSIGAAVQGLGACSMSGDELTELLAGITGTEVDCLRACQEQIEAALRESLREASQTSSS

Structure (SMILES) | HCT-116 % Inhibition at 0.1 μM [1] [%] | HCT-116 % Inhibition at 0.25 μM [1] [%] | CDK4 % Inhibition at 0.03 μM [2] [%] | CDK2 % Inhibition at 0.03 μM [3] [%]
Cc1ccc(CCNC(=O)c2ccc(Nc3nc(N)c(C(=O)c4c(F)cccc4F)s3)cc2)cc1 [Example G111] | 0 | 52 | 20 | 15
CC1CC(NC(=O)c2ccc(Nc3nc(N)c(C(=O)c4c(F)cccc4F)s3)cc2)CC(C)(C)C1 (stereo not drawn) [Example G112] | 6 | 57 | 13 | −11
Nc1nc(Nc2ccc(C(=O)NCCOc3ccccc3)cc2)sc1C(=O)c1c(F)cccc1F [Example G113] | 26 | 80 | 43 | 51
CCOC(=O)/C=C/c1ccc(NC(=O)c2ccc(Nc3nc(N)c(C(=O)c4c(F)cccc4F)s3)cc2)cc1 [Example G114] | 0 | 48 | 11 | −3
Nc1nc(Nc2ccc(C(=O)Nc3ccc4c(c3)S(=O)(=O)C=C4)cc2)sc1C(=O)c1c(F)cccc1F [Example G115] | 30 | 88 | 24 | 27
Nc1nc(Nc2ccc(C(=O)NCC3CCCO3)cc2)sc1C(=O)c1c(F)cccc1F (stereo not drawn) [Example G116] | 0 | 46 | 24 | 7
CCOC(=O)CC(C)NC(=O)c1ccc(Nc2nc(N)c(C(=O)c3c(F)cccc3F)s2)cc1 (stereo not drawn) [Example G117] | 6 | 55 | 13 | 4
CC(CNC(=O)c1ccc(Nc2nc(N)c(C(=O)c3c(F)cccc3F)s2)cc1)c1ccccc1 (stereo not drawn) [Example G118] | 5 | 48 | 21 | 11
CN(C)CCCNC(=O)c1ccc(Nc2nc(N)c(C(=O)c3c(F)cccc3F)s2)cc1 [Example G119] | 0 | 64 | 31 | 11
Nc1nc(Nc2ccc(C(=O)NC3CCS(=O)(=O)C3)cc2)sc1C(=O)c1c(F)cccc1F (stereo not drawn) [Example G120] | 0 | 54 | 23 | 14
Nc1nc(Nc2ccc(C(=O)NC3CCSC3=O)cc2)sc1C(=O)c1c(F)cccc1F (stereo not drawn) [Example G121] | 0 | 55 | 20 | 13
Nc1nc(Nc2ccc(C(=O)NC3CC3)cc2)sc1C(=O)c1c(F)cccc1F [Example G123] | 4 | 50 | 12 | −5
Nc1nc(Nc2ccc(C(=O)NCCN3CCOCC3)cc2)sc1C(=O)c1c(F)cccc1F [Example G124] | 0 | 64 | 17 | 10
CC(C)CC(C)NC(=O)c1ccc(Nc2nc(N)c(C(=O)c3c(F)cccc3F)s2)cc1 (stereo not drawn) [Example G125] | 13 | 59 | 9 | 3
CC(C)CNC(=O)c1ccc(Nc2nc(N)c(C(=O)c3c(F)cccc3F)s2)cc1 [Example G126] | 0 | 53 | 7 | 3
CCN(CC)CCCNC(=O)c1ccc(Nc2nc(N)c(C(=O)c3c(F)cccc3F)s2)cc1 [Example G127] | 0 | 61 | 29 | 10
Nc1nc(Nc2ccc(C(=O)NCCCN3CCCCC3)cc2)sc1C(=O)c1c(F)cccc1F [Example G128] | 23 | 78 | 41 | 15
Nc1nc(Nc2ccc(C(=O)NC3CCOC3=O)cc2)sc1C(=O)c1c(F)cccc1F (stereo not drawn) [Example G129] | 0 | 51 | 19 | 11

Source: patent US6720346B2, “Thiazole benzamide derivatives and pharmaceutical compositions for inhibiting cell proliferation” (Agouron Pharmaceuticals, Inc., priority 2001, dated 2004)
